Results on 43 molecules are retold here after US20070032529A1, “Pyrazole compounds and their use as antidiabetes agents” (Japan Tobacco Inc., priority 2005, published 2007).

Counter-ions that a name gives are not always drawn. Where only a bound is given, the exact number is not on record here.

The first assay addresses T1, recombinant human liver glycogen phosphorylase (Homo sapiens, UniProt P06737).
T1 construct: made in house; host or cells: Sf9 insect cells (crude homogenate, diluted, used as the enzyme solution)
T1 sequence (P06737 1-847): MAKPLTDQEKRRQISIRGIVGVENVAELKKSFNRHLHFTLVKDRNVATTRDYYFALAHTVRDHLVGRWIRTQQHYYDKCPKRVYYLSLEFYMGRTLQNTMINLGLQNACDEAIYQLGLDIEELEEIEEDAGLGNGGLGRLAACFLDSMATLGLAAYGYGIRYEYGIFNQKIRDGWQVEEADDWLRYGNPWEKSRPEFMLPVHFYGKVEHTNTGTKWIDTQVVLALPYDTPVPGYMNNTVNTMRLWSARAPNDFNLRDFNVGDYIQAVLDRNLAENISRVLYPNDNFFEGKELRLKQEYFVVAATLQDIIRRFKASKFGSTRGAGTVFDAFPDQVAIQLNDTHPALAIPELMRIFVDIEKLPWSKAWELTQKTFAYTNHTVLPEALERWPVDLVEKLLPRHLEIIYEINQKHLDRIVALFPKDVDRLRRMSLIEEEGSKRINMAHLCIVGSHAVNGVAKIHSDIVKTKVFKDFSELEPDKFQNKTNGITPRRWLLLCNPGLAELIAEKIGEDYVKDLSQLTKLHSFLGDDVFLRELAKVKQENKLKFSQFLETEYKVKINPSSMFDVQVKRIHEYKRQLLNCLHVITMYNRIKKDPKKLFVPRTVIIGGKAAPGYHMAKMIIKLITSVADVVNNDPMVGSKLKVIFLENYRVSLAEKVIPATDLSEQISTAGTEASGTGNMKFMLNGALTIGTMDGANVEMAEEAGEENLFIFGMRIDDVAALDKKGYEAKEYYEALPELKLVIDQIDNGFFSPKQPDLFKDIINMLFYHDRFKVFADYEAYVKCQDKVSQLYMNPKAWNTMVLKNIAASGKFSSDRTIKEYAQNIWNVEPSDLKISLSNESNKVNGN
Description: Measuring liver glycogen phosphorylase activity (forward reaction system, NADPH absorbance at 340 nm). The settings on record: compound concentration 100 nmol (in parentheses); read-out: inhibition rate (%) at a certain concentration. In kind it is biochemical. As to the method: [Pharmacological Test] 1. Exemplary Test (1) Method for Measuring Liver Glycogen Phosphorylase Activity
The measurement of glycogen phosphorylase activity was carried out by a method using the forward reaction system.
The measurement of glycogen phosphorylase activity using the forward reaction system was carried out as follows. Glucose-1-phosphate prepared from glycogen by glycogen phosphorylase was converted into glucono-δ-lactone 6-phosphate through transphosphorylation and dehydrogenation using phosphoglucomutase and glucose-6-phosphate dehydrogenase (G6PDH). NADPH generated from NADP during the dehydrogenation by G6PDH was detected.
A homogenate of the Sf9 cells which expressed exogenously recombinant human liver glycogen phosphorylase was diluted with 100 mmol/LBES buffer solution (pH 6.8, containing 2 mmol/L EDTA) and the dilution was used as the enzyme solution of human liver glycogen phosphorylase. As the substrate, a phosphate buffer (containing 16 mmol/L KH2PO4, 24 mmol/L Na2HPO4) was used. A mixture of 8 U/mL phosphoglucomutase and 60 U/mL G6PDH was prepared in BES buffer solution. Buffer solution (containing 1.4 mmol/L NADP, 30 mmol/L MgCl2, 8 μmol/L glucose-1,6-diphosphate, 8 mg/mL glycogen, 40 mmol/LBES, 0.8 mmol/L EDTA) for reaction and a glucose solution (containing 75 mmol/L glucose, 100 mmol/LBES, 2 mmol/L EDTA) were prepared individually. The test compound was dissolved in 1% DMSO solution.
The enzymatic reaction was begun by adding 20 μL of the recombinant human liver glycogen phosphorylase solution and 20 μL of the mixture of phosphoglucomutase and G6PDH to the mixture of 20 μL of the glucose solution, 20 μL of the substrate, 100 μL of the buffer solution for reaction and 20 μL of the test compound solution. As control, 1% DMSO solution was added instead of the test compound. The mixture without the substrate was used as blank. The absorbance at 340 nm was measured immediately after the reaction started. The absorbance at 340 nm was measured again after reacting at room temperature for 75 minutes. The enzymatic activity is a value obtained by subtracting the blank variation in absorbance over 75 minutes from the variation in absorbance over 75 minutes.
The inhibition rate (%) of the test compound was calculated by the expression “(1-enzymatic activity of test compound/enzymatic activity of control)×100.”
A linear equation was determined from the two concentration points with the 50% inhibition rate therebetween, and the IC50 value was calculated from the concentration at the intersection of the line with the 50% inhibition rate.
“IC50” in the tables indicates the above-described enzyme inhibitory activity with respect to liver glycogen phosphorylase, and the activity to inhibit liver glycogen phosphorylase was represented as ++ when the IC50 value (nmol/L) was less than 100 nmol/L, as + when the IC50 value was between 100 nmol/L and 300 nmol/L. When IC50 is 300 nmol/L or more, an inhibition rate (%) at a certain concentration of the compound (I) of the present invention is shown in Tables. For example, when the inhibition rate is 20% at a concentration of 300 nmol, the rate is described as 20% (300).
For the molecule `C[C@H](NC(=O)c1cc(NC(=O)c2cc(F)c(F)cc2Cl)[nH]n1)c1ccccc1` [Example 2-21], the inhibition at 0.1 µM was 5.7%. Consider `O=C(Nc1cccc2cccnc12)c1cc(NC(=O)c2cc(F)c(F)cc2Cl)[nH]n1` [Example 1-146], for which the inhibition at 0.1 µM was determined as 11.3%.

As to `CCCCN(C(=O)c1cc(NC(=O)c2cc(F)c(F)cc2Cl)[nH]n1)c1ccc(CC(=O)OCC)cc1` [Example 4-45], the inhibition at 0.1 µM stood at 5.9%. Turning to `CCOc1cc(C(C)(C)C(=O)O)cnc1NC(=O)c1cc(NC(=O)c2cc(F)c(F)cc2Cl)[nH]n1` [Example 1-150], the inhibition at 0.1 µM was 13.8%.

The same assay, now with this note: compound concentration 300 nmol (in parentheses); read-out: inhibition rate (%) at a certain concentration.
Take `O=C(NC1CCCCC1)c1cc(NC(=O)c2cc(F)c(F)cc2Cl)[nH]n1` [Example 1-79]: the inhibition at 0.3 µM was found to be 23.3%. Consider `CN(C)CCNC(=O)c1cc(NC(=O)c2cc(F)c(F)cc2Cl)[nH]n1` [Example 3-42], for which the inhibition at 0.3 µM worked out at 1.1%. The same measure, in the same setting: the value for `O=C(NCc1ccccc1)c1cc(NC(=O)c2ccc(Cl)nc2Cl)[nH]n1` [Example 4-39] was 5.3%.

The assay is the same for the next values; noted with them: compound concentration 400 nmol (in parentheses); read-out: inhibition rate (%) at a certain concentration.
As for `O=C(Nc1cc(C(=O)N2CCc3ccccc3C2)n[nH]1)c1cc(F)c(F)cc1Cl` [Example 3-12], the inhibition at 0.4 µM was found to be 50%.

Still in this assay, the particulars now being: compound concentration 640 nmol (in parentheses); read-out: inhibition rate (%) at a certain concentration.
In the case of `O=C(N[C@@H](CO)c1ccccc1)c1cc(NC(=O)c2cc(F)c(F)cc2Cl)[nH]n1` [Example 3-22], the inhibition at 0.64 µM came to 50%.

Still in this assay, the particulars now being: compound concentration 1000 nmol (in parentheses); read-out: inhibition rate (%) at a certain concentration.
`CCOC(=O)C1CCN(C(=O)c2cc(NC(=O)c3cc(F)c(F)cc3Cl)[nH]n2)CC1` [Example 3-6]: the inhibition at 1 µM was 42.5%.

Still in this assay, the particulars now being: enzyme inhibitory activity with respect to liver glycogen phosphorylase; class symbols.
A word on the IC50: it is the concentration at which inhibition is half-maximal. For `N#CC(NC(=O)c1cc(NC(=O)c2cc(F)c(F)cc2Cl)[nH]n1)c1ccccc1` (stereo not shown) [Example 1-75], the IC50 is less than 100 nM. `CC(C)OCCN(C(=O)c1cc(NC(=O)c2cc(F)c(F)cc2Cl)[nH]n1)C1CCCCC1` [Example 1-101]: the concentration for half-maximal inhibition (IC50) was less than 100 nM. Consider `O=C(NCc1cc(F)ccc1F)c1cc(NC(=O)c2cc(F)c(F)cc2Cl)[nH]n1` [Example 1-20], for which the IC50 was less than 100 nM.

As for `O=C(O)CCCN(C(=O)c1cc(NC(=O)c2cc(F)c(F)cc2Cl)[nH]n1)c1ccccc1` [Example 4-28], the IC50 was in the range of 100 to 300 nM.

In the case of `O=C(NCc1cc(F)cc(F)c1)c1cc(NC(=O)c2cc(F)c(F)cc2Cl)[nH]n1` [Example 1-23], the IC50 was less than 100 nM. Still for that read-out and setting: to `CN(C)CCN(C(=O)c1cc(NC(=O)c2cc(F)c(F)cc2Cl)[nH]n1)C1CCCCC1` [Example 3-44] belongs 100 to 300 nM. Same read-out and setting: to `CCOCCCN(C(=O)c1cc(NC(=O)c2cc(F)c(F)cc2Cl)[nH]n1)C1CCCCC1` [Example 1-102] belongs less than 100 nM; to `COCCN(C(=O)c1cc(NC(=O)c2cc(F)c(F)cc2Cl)[nH]n1)C1CCOCC1` [Example 1-97], less than 100 nM; to `CCOC(=O)CCCN(C(=O)c1cc(NC(=O)c2cc(F)c(F)cc2Cl)[nH]n1)c1ccccc1` [Example 4-26], less than 100 nM. In the case of `O=C(NCc1ccc(-c2csnn2)cc1)c1cc(NC(=O)c2cc(F)c(F)cc2Cl)[nH]n1` [Example 1-142], the IC50 is less than 100 nM. With `O=C(NCc1ccccc1)c1cc(NC(=O)c2ccc(F)cc2Cl)[nH]n1` [Example 4-6], the IC50 fell in the range of 100 to 300 nM. Regarding `Cc1nc(-c2ccccc2)c(CNC(=O)c2cc(NC(=O)c3cc(F)c(F)cc3Cl)[nH]n2)o1` [Example 1-166], the IC50 is less than 100 nM. Still for that read-out and setting: to `CCCN(C(=O)c1cc(NC(=O)c2cc(F)c(F)cc2Cl)[nH]n1)c1ccccc1` [Example 3-16] belongs less than 100 nM. `O=C(NCc1cc(Cl)c(Cl)s1)c1cc(NC(=O)c2cc(F)c(F)cc2Cl)[nH]n1` [Example 1-161]: the IC50 was less than 100 nM. Same read-out and setting: to `CCOC(=O)CCN(Cc1ccccc1)C(=O)c1cc(NC(=O)c2cc(F)c(F)cc2Cl)[nH]n1` [Example 1-132] belongs less than 100 nM; to `O=C(NCc1nnc[nH]1)c1cc(NC(=O)c2cc(F)c(F)cc2Cl)[nH]n1` [Example 2-2-1, 5-(2-chloro-4,5-difluoro-benzoylamino)-1H-pyrazole-3-carboxylic acid (4H-[1,2,4]triazol-3-ylmethyl)-amide dihydrochloride], less than 100 nM. For `O=C(NCc1ncccc1C(F)(F)F)c1cc(NC(=O)c2cc(F)c(F)cc2Cl)[nH]n1` [Example 1-27], the IC50 was less than 100 nM. Consider `CCN(Cc1ccncc1)C(=O)c1cc(NC(=O)c2cc(F)c(F)cc2Cl)[nH]n1` [Example 1-5], for which the IC50 was less than 100 nM. Same read-out and setting: to `O=C(NCc1ccc(N2CCSCC2)nc1)c1cc(NC(=O)c2cc(F)c(F)cc2Cl)[nH]n1` [Example 1-153] belongs less than 100 nM; to `Cc1nc(CNC(=O)c2cc(NC(=O)c3cc(F)c(F)cc3Cl)[nH]n2)c(C)s1` [Example 1-53], less than 100 nM; to `Nc1cccc(CNC(=O)c2cc(NC(=O)c3cc(F)c(F)cc3Cl)[nH]n2)c1` [Example 3-30], less than 100 nM.

Take `Nc1ccccc1CNC(=O)c1cc(NC(=O)c2cc(F)c(F)cc2Cl)[nH]n1` [Example 1-65]: the IC50 is less than 100 nM. With `Cn1cccc1CNC(=O)c1cc(NC(=O)c2cc(F)c(F)cc2Cl)[nH]n1` [Example 1-58], the IC50 is less than 100 nM.

The assay is the same for the next values; noted with them: figure in brackets (100); read-out: IC50: % value given with (100).
Regarding `CC(=O)Nc1cc(F)c(F)cc1C(=O)Nc1cc(C(=O)NCc2cccnc2)n[nH]1` [Example 7-13], the inhibition at 0.1 µM turned out to be 1.9%.

Staying with this assay, now noted: figure in brackets (300); read-out: IC50 column: % value printed with (300).
Regarding `O=C(NCc1cccnc1)c1cc(NC(=O)c2sccc2Cl)[nH]n1` [Example 7-7], the inhibition at 0.3 µM amounted to 2.9%. On the same count and under the same terms, to `CNC(=O)c1ccc(N(C)C(=O)c2cc(NC(=O)c3cc(F)c(Cl)cc3Cl)[nH]n2)cc1` [Example 6-3] belongs 9.7%. As to `CN(C(=O)c1cc(NC(=O)c2cc(F)c(Cl)cc2Cl)[nH]n1)c1ccc(C(N)=O)cc1` [Example 6-2], the inhibition at 0.3 µM was determined as 12.3%.

The assay is the same for the next values; noted with them: human liver glycogen phosphorylase; class symbol.
For `CC(=N)Nc1cccc(CNC(=O)c2cc(NC(=O)c3cc(F)c(F)cc3Cl)[nH]n2)c1` [Example 6-31], the IC50 was less than 100 nM.

Turning to `CC(=O)Nc1ccccc1CNC(=O)c1cc(NC(=O)c2cc(F)c(F)cc2Cl)[nH]n1` [Example 6-20], the IC50 was less than 100 nM. In the case of `CC(=N)Nc1ccc(CNC(=O)c2cc(NC(=O)c3cc(F)c(F)cc3Cl)[nH]n2)cc1` [Example 6-32], the IC50 is less than 100 nM. Still for that read-out and setting: to `O=C(Nc1cc(C(=O)N2C=Nc3ccccc3C2)n[nH]1)c1cc(F)c(F)cc1Cl` [Example 6-44] belongs less than 100 nM; to `O=C(Nc1cc(C(=O)N2C=Nc3cc(F)ccc3C2)n[nH]1)c1cc(F)c(F)cc1Cl` [Example 6-45], less than 100 nM; to `CN(C)C(=O)Nc1ccc(CNC(=O)c2cc(NC(=O)c3cc(F)c(F)cc3Cl)[nH]n2)cc1` [Example 6-37], less than 100 nM.
